The results in this text go back to ChEMBL document CHEMBL1132515, “4-Chlorobenzyl sulfonamide and sulfamide derivatives of histamine homologues: the design of potent histamine H3 receptor antagonists” (Bioorg Med Chem Lett, 1999).

The target of the first test is Histamine H3 receptor (Cavia porcellus) (UniProt Q9JI35). As to the kind of experiment: Inhibition of neurogenic contractions in guinea pig ileum mediated by histamine H3 receptors. It is filed as functional, tissue-based.
Sequence of Histamine H3 receptor (Cavia porcellus) (Q9JI35 whole entry): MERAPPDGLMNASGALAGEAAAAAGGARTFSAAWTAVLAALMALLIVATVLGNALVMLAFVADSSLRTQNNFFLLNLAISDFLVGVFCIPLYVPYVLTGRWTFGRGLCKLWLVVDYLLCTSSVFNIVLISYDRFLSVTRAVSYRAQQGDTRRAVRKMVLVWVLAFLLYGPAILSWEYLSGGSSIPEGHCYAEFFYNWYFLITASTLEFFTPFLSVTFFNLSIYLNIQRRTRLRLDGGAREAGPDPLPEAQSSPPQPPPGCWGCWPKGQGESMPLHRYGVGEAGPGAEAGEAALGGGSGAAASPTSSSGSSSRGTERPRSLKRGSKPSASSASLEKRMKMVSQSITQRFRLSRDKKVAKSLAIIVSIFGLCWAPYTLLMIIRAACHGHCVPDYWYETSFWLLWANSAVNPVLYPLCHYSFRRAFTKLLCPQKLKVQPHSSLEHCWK
For the compound `O=S(=O)(NCCCCCc1c[nH]cn1)NCc1ccc(Cl)cc1`, the pKB – broadly, the negative decadic logarithm of the KB, by convention in mol/L – worked out at 8.2.
The same measure, in the same setting: as for `O=S(=O)(NCCCCc1c[nH]cn1)NCc1cccc(Cl)c1`, the figure is 7.86.
Still for that read-out and setting: as for `O=S(=O)(Cc1ccc(Cl)cc1)NCCCCCCCCc1c[nH]cn1`, the figure is 6.64; as for `O=S(=O)(NCCCCc1c[nH]cn1)NCc1ccccc1`, 7.01; as for `O=S(=O)(Cc1ccc(C(F)(F)F)cc1)NCCCCc1c[nH]cn1`, 7.89.
For the compound `O=S(=O)(NCCCCc1c[nH]cn1)NCc1ccc(I)cc1`, the pKB is 8.49.
Same read-out and setting: next, `O=S(=O)(NCCCCc1c[nH]cn1)NCc1ccc(-c2ccccc2)cc1`: 8.32; `O=S(=O)(Cc1ccc(Cl)cc1)NCCCCCCCc1c[nH]cn1`: 7.36; `O=S(=O)(Cc1ccc(Cl)cc1)NCCCc1c[nH]cn1`: 6.29.
The same measure, in the same setting: next, `O=S(=O)(Cc1ccc(Cl)cc1)NCCCCCCCCCCc1c[nH]cn1`: less than 5; `O=S(=O)(NCCCCc1c[nH]cn1)NCc1ccc(Br)cc1`: 8.91; `O=S(=O)(NCCCCCCc1c[nH]cn1)NCc1ccc(Cl)cc1`: 8.77.
The same measure, in the same setting: next, `O=S(=O)(Cc1ccc(Br)cc1)NCCCCc1c[nH]cn1`: 7.68.
For the compound `O=S(=O)(Cc1ccc(Cl)cc1)NCCCCCc1c[nH]cn1`, the pKB amounted to 7.33.
On the same count and under the same terms, next, `O=S(=O)(NCCCCc1c[nH]cn1)NCc1ccc(Cl)cc1`: 8.68.
`O=S(=O)(Cc1ccc(-c2ccccc2)cc1)NCCCCc1c[nH]cn1` yielded a pKB of 8.1.
In turn, `O=S(=O)(NCCCc1c[nH]cn1)NCc1ccc(Cl)cc1` displayed a pKB of 7.04.
The same measure, in the same setting: as for `O=S(=O)(Cc1ccc(Cl)cc1)NCCCCc1c[nH]cn1`, the figure is 8.62; as for `O=S(=O)(NCCCCCCCCc1c[nH]cn1)NCc1ccc(Cl)cc1`, 7.37; as for `COc1ccc(CNS(=O)(=O)NCCCCc2c[nH]cn2)cc1`, 7.06.
`O=S(=O)(NCCCCc1c[nH]cn1)NCc1ccc(C(F)(F)F)cc1` showed a pKB of 8.48.
The compound `O=S(=O)(Cc1ccc(Cl)cc1)NCCCCCCc1c[nH]cn1` had a pKB of 8.01.
In turn, `O=S(=O)(Cc1ccc(F)cc1)NCCCCc1c[nH]cn1` showed a pKB of 7.32.
Same read-out and setting: as for `O=S(=O)(NCCCCc1c[nH]cn1)NCc1ccccc1Cl`, the figure is 6.42; as for `O=S(=O)(NCCCCc1c[nH]cn1)NCc1ccc(F)cc1`, 7.7.
Still for that read-out and setting: next, `O=S(=O)(NCCCCCCCc1c[nH]cn1)NCc1ccc(Cl)cc1`: 8.37; `O=S(=O)(NCCCCCCCCCCc1c[nH]cn1)NCc1ccc(Cl)cc1`: less than 5.

The target of the next test is Histamine H3 receptor (Cavia porcellus, UniProt Q9JI35). As to the kind of experiment: Ability to displace [3H]R-alpha-methylhistamine from histamine H3 receptor in guinea pig ileum longitudinal muscle myenteric plexus(LMMP) membranes. It is filed as tissue-based.
Sequence of Histamine H3 receptor (Q9JI35 whole entry): as above
As to `O=S(=O)(NCCCCCCCCc1c[nH]cn1)NCc1ccc(Cl)cc1`, the Ki – broadly, a measure of affinity in units of concentration, obtained from inhibition or displacement – is 13.2 nM.
The same measure, in the same setting: as for `O=S(=O)(NCCCCc1c[nH]cn1)NCc1ccc(C(F)(F)F)cc1`, the figure is 2.63 nM.
